Data set [1] concerns the target T1, Mitogen-activated protein kinase kinase kinase 6 (Homo sapiens) (UniProt O95382).
T1 sequence (whole entry): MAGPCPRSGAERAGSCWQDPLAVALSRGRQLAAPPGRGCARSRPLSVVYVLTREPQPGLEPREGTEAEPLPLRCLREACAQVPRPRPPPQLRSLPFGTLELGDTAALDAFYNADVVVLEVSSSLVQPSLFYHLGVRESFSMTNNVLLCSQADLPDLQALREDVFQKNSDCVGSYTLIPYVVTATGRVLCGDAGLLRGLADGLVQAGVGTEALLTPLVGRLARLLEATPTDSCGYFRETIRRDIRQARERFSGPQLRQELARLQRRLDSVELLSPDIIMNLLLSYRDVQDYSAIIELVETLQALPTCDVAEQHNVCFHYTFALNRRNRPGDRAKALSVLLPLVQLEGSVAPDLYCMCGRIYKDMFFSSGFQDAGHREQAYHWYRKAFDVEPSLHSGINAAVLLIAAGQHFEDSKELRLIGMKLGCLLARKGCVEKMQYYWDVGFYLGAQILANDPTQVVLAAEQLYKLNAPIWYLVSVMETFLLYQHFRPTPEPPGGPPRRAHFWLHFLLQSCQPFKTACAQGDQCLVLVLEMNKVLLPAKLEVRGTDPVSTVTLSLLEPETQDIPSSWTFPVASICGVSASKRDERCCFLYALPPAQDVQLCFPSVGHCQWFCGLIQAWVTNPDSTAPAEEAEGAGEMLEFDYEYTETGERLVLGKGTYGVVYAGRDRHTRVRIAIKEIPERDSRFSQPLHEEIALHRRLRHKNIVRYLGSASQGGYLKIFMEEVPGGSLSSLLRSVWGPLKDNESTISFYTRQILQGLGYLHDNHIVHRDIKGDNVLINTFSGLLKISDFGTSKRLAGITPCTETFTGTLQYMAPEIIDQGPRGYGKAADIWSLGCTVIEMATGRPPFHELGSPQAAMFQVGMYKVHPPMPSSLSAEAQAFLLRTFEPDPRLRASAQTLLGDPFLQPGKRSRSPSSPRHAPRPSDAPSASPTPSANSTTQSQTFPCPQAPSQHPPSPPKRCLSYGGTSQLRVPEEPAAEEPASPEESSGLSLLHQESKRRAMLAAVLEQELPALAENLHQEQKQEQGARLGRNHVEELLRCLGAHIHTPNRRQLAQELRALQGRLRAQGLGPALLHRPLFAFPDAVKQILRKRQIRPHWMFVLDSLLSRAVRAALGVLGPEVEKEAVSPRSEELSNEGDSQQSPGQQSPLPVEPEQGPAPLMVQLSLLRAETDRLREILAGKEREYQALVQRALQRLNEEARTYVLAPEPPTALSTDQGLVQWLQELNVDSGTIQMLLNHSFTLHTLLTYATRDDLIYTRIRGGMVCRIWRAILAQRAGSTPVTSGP
Briefly: Inhibition of MAP3K6 conserved Lys1 (IAIKEIPER) in human PBMC at 0.1 uM.

Data set [2] has as its target Serine/threonine-protein kinase WNK4 (Homo sapiens) (UniProt Q96J92). Nature of the data set: Inhibition of Wnk4 activation Loop (IGDLGLATLKR) in human PBMC at 1 uM.
Data set [3] deals with MDR1. Nature of the data set: Efflux ratio of apparent permeability from basolateral to apical over apical to basolateral side in MDCK cells harboring MDR1. It is filed as ADME, cell-based, Canis lupus familiaris. As to conditions: dog.
Data set [4] addresses Cyclin-dependent kinase 2 (Homo sapiens) (UniProt P24941). Nature of the data set: Inhibition of CDK2 labeling at conserved Lys1 (LTGEVVALKK) in human PBMC at 0.1 uM.
The target in data set [5] is Mitogen-activated protein kinase kinase kinase kinase 5 (Homo sapiens) (UniProt Q9Y4K4). Briefly: Inhibition of KHS1 conserved Lys1 (NVHTGELAAVKIIK) in human PBMC at 0.1 uM.
Data set [6] can be described thus: Inhibition of GCK conserved Lys1 (DTVTSELAAVKIVK) in human PBMC at 1 uM.
Data set [7] deals with T2, Serine/threonine-protein kinase 4 (Homo sapiens) (UniProt Q13043).
T2 sequence (whole entry): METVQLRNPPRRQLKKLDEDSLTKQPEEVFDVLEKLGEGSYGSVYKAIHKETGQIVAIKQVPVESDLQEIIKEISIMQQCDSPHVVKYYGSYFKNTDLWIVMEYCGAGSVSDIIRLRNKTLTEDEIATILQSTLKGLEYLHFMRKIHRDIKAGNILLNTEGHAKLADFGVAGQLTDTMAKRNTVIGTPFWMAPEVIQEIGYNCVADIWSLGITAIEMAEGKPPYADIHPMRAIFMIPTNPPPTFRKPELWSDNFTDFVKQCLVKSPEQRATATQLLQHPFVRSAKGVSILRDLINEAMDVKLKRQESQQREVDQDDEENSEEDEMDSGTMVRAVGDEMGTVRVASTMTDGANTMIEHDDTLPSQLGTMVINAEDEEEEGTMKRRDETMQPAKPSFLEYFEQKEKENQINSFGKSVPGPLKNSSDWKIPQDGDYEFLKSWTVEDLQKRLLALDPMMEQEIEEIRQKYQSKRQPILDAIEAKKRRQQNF
Briefly: Inhibition of MST1 conserved Lys1 ETGQIVAIKQVPVESDLQEIIK in human PBMC at 1 uM.

In data set [8] the target is Mitogen-activated protein kinase 1 (Homo sapiens) (UniProt P28482). Nature of the data set: Inhibition of Erk2 ATP binding site (DLKPSNLLLNTTCDLK) in human PBMC at 1 uM.
Data set [9] has as its target Tyrosine-protein kinase JAK1 (Homo sapiens) (UniProt P23458). Nature of the data set: Inhibition of JAK1 domain1 (QLASALSYLEDKDLVHGNVCTKNLLLAR) in human PBMC at 0.1 uM.
The target of data set [10] is PAN2-PAN3 deadenylation complex subunit PAN3 (Homo sapiens) (UniProt Q58A45). Nature of the data set: Inhibition of PAN3 Protein Kinase Domain (VMDPTKILITGK) in human PBMC at 0.1 uM.
For data set [11], the target named is Calcium/calmodulin-dependent protein kinase type 1D (Homo sapiens) (UniProt Q8IU85). Nature of the data set: Inhibition of CaMK1d labeling at conserved Lys2 (DLKPENLLYYSQDEESK) in human PBMC at 1 uM.

The source of these data is ChEMBL document CHEMBL4043168, “The design and SAR of a novel series of 2-aminopyridine based LRRK2 inhibitors” (Bioorg Med Chem Lett, 2017).

Sequence of Mitogen-activated protein kinase kinase kinase kinase 5 (Homo sapiens) (Q9Y4K4 whole entry, looked up): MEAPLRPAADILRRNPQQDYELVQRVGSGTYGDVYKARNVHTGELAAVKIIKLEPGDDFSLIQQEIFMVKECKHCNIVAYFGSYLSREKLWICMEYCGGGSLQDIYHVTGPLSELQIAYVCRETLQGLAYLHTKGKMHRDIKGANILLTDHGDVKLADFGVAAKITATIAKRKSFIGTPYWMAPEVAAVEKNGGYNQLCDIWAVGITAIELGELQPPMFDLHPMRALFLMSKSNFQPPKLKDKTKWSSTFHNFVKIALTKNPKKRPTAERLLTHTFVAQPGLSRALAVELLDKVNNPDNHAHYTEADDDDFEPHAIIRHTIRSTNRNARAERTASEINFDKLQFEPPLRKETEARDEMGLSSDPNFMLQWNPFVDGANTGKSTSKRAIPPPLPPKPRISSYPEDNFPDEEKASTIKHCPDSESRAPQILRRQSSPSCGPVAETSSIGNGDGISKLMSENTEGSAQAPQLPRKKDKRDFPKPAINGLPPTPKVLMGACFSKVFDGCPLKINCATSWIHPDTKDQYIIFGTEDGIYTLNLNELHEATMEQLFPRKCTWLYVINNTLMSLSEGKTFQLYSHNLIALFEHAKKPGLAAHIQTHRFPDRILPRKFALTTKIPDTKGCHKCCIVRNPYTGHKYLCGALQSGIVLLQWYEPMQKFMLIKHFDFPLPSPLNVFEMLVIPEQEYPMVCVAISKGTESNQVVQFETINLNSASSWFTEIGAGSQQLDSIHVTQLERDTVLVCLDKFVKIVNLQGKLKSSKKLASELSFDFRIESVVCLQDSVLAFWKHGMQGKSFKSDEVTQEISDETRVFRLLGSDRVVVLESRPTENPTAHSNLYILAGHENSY
Sequence of Tyrosine-protein kinase JAK1 (Homo sapiens) (P23458 whole entry, the tested form may be a part): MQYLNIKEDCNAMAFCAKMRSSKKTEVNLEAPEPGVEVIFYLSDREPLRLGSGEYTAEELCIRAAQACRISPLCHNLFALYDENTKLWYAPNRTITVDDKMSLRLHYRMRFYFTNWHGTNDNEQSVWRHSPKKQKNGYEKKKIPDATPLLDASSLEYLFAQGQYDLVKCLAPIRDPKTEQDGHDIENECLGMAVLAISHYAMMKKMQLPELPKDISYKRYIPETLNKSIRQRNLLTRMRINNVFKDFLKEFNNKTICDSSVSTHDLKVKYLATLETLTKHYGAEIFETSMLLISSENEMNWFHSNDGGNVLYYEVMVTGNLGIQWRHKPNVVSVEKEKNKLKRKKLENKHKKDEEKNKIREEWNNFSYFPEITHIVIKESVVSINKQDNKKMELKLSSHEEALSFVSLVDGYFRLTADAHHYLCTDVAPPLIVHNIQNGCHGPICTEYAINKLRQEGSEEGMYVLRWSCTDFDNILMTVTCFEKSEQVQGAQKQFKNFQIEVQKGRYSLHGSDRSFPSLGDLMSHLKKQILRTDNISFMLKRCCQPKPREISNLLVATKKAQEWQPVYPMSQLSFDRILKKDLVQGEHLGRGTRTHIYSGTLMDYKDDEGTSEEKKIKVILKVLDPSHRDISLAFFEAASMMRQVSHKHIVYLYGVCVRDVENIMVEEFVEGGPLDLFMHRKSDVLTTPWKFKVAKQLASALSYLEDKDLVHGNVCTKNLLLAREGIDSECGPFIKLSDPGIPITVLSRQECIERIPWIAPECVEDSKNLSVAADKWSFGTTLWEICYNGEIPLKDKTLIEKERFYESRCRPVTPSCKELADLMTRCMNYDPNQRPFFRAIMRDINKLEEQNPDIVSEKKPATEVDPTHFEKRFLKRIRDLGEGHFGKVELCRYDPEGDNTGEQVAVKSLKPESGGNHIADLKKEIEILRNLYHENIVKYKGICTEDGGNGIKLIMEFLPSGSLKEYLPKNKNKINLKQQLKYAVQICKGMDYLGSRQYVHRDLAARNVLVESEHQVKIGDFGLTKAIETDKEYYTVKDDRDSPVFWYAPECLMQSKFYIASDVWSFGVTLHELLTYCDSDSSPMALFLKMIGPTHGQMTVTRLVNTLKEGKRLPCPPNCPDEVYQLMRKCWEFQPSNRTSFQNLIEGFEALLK
Sequence of Calcium/calmodulin-dependent protein kinase type 1D (Homo sapiens) (Q8IU85 whole entry, looked up): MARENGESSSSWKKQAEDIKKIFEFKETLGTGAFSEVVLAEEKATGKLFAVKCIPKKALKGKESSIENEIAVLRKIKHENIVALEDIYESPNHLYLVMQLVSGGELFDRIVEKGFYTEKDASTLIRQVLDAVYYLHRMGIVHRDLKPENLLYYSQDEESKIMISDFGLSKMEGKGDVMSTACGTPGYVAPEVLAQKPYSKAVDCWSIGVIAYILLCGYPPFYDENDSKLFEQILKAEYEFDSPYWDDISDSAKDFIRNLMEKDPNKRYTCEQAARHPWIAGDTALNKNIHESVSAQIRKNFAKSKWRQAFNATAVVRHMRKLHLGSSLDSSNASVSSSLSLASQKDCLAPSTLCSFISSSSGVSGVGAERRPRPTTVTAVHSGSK
Sequence of Mitogen-activated protein kinase 1 (Homo sapiens) (P28482 whole entry, the tested form may be a part): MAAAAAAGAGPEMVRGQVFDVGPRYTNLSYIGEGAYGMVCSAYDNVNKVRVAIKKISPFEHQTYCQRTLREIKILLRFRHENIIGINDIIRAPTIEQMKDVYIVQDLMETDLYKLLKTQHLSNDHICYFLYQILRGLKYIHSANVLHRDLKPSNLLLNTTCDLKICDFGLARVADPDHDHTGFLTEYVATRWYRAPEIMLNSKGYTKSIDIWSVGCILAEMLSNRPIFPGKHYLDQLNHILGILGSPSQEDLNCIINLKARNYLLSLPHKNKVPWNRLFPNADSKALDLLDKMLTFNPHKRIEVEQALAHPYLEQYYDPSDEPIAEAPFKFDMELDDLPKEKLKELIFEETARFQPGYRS
Sequence of Serine/threonine-protein kinase WNK4 (Homo sapiens) (Q96J92 whole entry): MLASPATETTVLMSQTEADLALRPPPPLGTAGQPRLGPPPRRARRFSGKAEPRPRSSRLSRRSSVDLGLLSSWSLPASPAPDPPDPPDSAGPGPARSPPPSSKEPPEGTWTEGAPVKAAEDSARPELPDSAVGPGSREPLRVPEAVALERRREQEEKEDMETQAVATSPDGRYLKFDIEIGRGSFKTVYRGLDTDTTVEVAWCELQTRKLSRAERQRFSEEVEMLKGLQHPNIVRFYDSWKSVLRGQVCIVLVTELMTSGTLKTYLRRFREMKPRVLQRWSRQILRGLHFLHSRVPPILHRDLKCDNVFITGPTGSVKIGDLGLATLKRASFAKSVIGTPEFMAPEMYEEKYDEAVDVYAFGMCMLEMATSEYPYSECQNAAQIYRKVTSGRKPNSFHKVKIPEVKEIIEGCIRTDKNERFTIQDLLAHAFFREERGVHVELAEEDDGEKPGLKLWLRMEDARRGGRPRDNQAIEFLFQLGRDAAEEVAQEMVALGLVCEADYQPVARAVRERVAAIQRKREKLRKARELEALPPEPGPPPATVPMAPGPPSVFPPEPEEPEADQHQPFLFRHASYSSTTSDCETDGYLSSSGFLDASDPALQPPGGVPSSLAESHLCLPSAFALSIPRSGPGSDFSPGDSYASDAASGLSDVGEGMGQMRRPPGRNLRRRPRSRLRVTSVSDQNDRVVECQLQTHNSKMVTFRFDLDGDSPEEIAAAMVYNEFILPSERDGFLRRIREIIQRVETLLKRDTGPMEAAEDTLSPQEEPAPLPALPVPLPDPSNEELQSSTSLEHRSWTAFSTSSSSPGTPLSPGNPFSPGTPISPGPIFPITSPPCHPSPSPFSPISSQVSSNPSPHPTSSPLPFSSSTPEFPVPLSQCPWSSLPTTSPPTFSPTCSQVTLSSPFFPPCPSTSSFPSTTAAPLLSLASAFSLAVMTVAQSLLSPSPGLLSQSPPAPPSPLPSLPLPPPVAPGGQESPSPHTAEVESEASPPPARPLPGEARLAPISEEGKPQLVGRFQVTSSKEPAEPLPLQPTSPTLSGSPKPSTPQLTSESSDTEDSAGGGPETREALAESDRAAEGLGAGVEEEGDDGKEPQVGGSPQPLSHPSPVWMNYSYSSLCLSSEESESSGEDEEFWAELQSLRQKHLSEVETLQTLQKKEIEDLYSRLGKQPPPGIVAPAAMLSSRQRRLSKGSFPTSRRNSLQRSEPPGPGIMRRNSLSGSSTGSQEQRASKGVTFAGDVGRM
Sequence of PAN2-PAN3 deadenylation complex subunit PAN3 (Homo sapiens) (Q58A45 whole entry, the tested form may be a part, one chain of several): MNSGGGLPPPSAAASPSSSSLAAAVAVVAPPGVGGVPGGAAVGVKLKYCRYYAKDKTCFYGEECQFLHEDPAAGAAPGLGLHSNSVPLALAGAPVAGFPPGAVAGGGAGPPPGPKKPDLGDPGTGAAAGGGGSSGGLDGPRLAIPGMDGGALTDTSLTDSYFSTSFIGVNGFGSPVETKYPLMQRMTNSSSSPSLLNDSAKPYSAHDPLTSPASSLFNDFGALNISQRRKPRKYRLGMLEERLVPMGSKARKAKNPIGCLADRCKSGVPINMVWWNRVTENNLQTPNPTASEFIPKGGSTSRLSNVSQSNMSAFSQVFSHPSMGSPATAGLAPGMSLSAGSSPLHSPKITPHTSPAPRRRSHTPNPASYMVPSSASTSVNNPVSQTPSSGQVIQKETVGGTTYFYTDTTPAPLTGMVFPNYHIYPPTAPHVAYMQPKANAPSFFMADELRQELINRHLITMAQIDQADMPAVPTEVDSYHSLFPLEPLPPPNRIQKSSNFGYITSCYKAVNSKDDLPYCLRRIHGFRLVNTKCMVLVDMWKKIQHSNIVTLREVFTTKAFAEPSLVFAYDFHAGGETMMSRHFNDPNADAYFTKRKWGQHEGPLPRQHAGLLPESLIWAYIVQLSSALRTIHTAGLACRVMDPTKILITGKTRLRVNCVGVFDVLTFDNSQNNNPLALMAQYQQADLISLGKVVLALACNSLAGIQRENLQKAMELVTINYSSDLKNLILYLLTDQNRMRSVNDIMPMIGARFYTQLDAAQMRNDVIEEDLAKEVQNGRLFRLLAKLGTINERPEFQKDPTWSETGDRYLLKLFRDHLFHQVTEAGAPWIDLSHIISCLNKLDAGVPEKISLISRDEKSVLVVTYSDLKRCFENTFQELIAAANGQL

Turning to `CC(C)n1cc(-c2cc(-c3ccc(CN4CCOCC4)cc3)cnc2N)nn1`, the inhibition was -0.5% in [1]; 21.9% in [2]; 23.4% in [4]; 14.7% in data set [5]; 0.5% in [6]; -9.5% in data set [7]. Moreover, the inhibition was 14.9% in data set [8], 16.4% in data set [9], 6.2% in data set [10] and -0.9% in data set [11]. The efflux ratio in data set [3] is 0.68.
